The source of these data is patent US20040057908A1, “Oral compositions and use thereof” (priority 2003, published 2004).

Test [1] relates to T1, streptococcal GTFs.
T1 construct: Streptococcus milleri KSB8, which harbors the gtfB gene from S. mutans GS-5 (for GTF B production)
In words: GTF activity in solution, all GTFs (B, C, D, Ss) stated together. The format is biochemical, Streptococcus mutans, S. sanguinis. The note with it: 1.33 mM. How it is done:
The GTF enzyme added to each sample for all assays was equivalent to the amount required to incorporate 1.0-1.5 μmol of glucose over the four hours reaction (1.0-1.5 units).
The samples were incubated 37° C. with rocking for 4 h.
For this assay, a one-way layout experimental design was used in 4×2×7 factorial scheme (enzyme×state×dose). An analysis of variance was carried out and qualitative treatments were compared using Tukey test at level of 5% of significance (p<0.05). A non-linear regression was applied in order to evaluate effects of different concentrations.

The target in the next test is T2, GTF C (Streptococcus mutans serotype c, UniProt P13470).
T2 construct: The supernatant was carefully collected as the source of GTF C; made in house; host or cells: Streptococcus mutans WHB 410 (endogenous gtfC; urea/Triton extract of washed cells, hydroxyapatite chromatography)
In words: GTF activity adsorbed onto sHA surface, GTF C. Format: biochemical. How it is done:
(§1) Glucosyltransferase activity was measured by the incorporation of [^14C-glucose] from labeled sucrose (NEN Research Products, Boston, Mass.) into glucans (Germaine et al., 1974; Venkitaraman et al., 1995). The GTF enzyme added to each sample for all assays was equivalent to the amount required to incorporate 1.0-1.5 μmol of glucose over the four hours reaction (1.0-1.5 units).
(§2) For surface assays, the GTFs were adsorbed to hydroxyapatite beads coated with clarified whole saliva (free of GTF activity), as detailed elsewhere (Koo et al., 2000c; Schilling and Bowen, 1988, Venkitaraman et al., 1995). The saliva-coated hydroxyapatite (sHA) beads were exposed to sufficient enzyme to saturate the surface as determined experimentally. Following the adsorption of the enzyme, the beads were washed 3 times with buffer to remove the loosely bound material and exposed to 300 μl of the two-fold dilution series of test compounds (or control) for 30 min. at the same concentrations described above. The beads were washed and exposed to 300 μl [^14C-glucose]-sucrose substrate (100.0 mmol/l sucrose, final concentration). The radiolabeled glucan formed was collected and quantified by scintillation counting (Germaine et al., 1974; Venkitaraman et al., 1995). All the solution and surface assays were done in quadruplicate in at least 3 different experiments.

The next test has as its target T3, GTF D (Streptococcus mutans serotype c, UniProt P49331).
T3 construct: made in house; host or cells: Streptococcus milleri NH5 (culture supernatant)
In words: GTF activity adsorbed onto sHA surface, GTF D. The format is biochemical. How it is done:
as §1, §2

Test [2] concerns T1, streptococcal GTFs. In words: GTF activity adsorbed onto sHA surface, all GTFs stated together. The note with it: 1.33 mM. The format is biochemical, Streptococcus mutans, S. sanguinis. As for the experimental part: as §1
as §2, with “experiments. […]” for “experiments.”

A further test has as its system biofilms. As to the kind of experiment: Formation of biofilms (continued research). Format: cell-based.
The subject of test [3] is Mutans Streptococci Strains. In words: MIC and MBC, broth dilution, all strains stated together. Format: cell-based, S. mutans (GS-5 and UA159) and S. sobrinus 6715. The settings on record: Streptococcus mutans; all strains tested (S. mutans GS-5, UA159, S. sobrinus 6715); read-out: MIC. The procedure, abridged: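 Broth microdilution and macrodilution in TSB per NCCLS guidelines; inoculum 5×10^5 CFU/ml, test compounds 15.6–500 μM in two-fold dilutions. MIC and MBC values determined in quadruplicate across at least 3 independent experiments.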
In general terms: Broth dilution looks for growth in wells or tubes with falling amounts of substance.

The mark [4] stands for this setting: read-out: GTF C surf. % of Inhib.
Setting [5] is: read-out: GTF D surf. % of Inhib.

Several values for one entry are separate records, joined by “and”; a condition that tells them apart may be missing. Equal values may be shown once.

T3 sequence (P49331 whole entry): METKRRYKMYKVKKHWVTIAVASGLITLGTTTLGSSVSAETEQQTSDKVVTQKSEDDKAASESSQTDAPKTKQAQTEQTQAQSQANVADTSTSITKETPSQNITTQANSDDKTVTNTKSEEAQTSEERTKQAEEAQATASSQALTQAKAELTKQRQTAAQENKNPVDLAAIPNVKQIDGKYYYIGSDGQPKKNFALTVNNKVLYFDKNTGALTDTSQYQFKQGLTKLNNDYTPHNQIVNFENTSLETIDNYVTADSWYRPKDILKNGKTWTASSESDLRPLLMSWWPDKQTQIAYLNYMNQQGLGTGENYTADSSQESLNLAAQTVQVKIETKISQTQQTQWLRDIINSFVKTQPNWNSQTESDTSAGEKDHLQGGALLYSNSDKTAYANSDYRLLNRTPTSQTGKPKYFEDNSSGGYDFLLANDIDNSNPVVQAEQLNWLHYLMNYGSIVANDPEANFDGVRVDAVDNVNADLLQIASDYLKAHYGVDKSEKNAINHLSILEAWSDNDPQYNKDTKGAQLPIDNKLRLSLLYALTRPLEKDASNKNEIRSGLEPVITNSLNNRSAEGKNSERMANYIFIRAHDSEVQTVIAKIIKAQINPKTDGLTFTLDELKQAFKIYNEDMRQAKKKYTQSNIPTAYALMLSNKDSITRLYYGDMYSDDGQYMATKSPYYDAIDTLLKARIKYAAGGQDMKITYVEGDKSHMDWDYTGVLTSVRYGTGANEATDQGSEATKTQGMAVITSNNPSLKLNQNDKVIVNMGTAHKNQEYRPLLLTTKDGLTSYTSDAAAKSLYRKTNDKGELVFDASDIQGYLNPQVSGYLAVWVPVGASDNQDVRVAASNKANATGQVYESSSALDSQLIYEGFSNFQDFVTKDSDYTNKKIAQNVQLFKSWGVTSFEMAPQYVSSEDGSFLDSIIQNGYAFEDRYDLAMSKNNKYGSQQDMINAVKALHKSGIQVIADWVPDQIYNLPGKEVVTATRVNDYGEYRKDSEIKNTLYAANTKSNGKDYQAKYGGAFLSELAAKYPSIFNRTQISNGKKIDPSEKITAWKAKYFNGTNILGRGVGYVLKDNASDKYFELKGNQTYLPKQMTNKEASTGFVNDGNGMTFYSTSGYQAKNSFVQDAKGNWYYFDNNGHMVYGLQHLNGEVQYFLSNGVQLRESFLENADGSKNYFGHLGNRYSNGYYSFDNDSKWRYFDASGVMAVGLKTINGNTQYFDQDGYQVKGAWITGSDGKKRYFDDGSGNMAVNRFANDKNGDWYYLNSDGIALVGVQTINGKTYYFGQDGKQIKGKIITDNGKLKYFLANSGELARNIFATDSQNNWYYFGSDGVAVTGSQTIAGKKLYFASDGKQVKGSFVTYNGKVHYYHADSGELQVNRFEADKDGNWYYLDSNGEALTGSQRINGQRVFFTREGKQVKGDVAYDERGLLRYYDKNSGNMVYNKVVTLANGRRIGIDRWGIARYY
T2 sequence (P13470 35-1455): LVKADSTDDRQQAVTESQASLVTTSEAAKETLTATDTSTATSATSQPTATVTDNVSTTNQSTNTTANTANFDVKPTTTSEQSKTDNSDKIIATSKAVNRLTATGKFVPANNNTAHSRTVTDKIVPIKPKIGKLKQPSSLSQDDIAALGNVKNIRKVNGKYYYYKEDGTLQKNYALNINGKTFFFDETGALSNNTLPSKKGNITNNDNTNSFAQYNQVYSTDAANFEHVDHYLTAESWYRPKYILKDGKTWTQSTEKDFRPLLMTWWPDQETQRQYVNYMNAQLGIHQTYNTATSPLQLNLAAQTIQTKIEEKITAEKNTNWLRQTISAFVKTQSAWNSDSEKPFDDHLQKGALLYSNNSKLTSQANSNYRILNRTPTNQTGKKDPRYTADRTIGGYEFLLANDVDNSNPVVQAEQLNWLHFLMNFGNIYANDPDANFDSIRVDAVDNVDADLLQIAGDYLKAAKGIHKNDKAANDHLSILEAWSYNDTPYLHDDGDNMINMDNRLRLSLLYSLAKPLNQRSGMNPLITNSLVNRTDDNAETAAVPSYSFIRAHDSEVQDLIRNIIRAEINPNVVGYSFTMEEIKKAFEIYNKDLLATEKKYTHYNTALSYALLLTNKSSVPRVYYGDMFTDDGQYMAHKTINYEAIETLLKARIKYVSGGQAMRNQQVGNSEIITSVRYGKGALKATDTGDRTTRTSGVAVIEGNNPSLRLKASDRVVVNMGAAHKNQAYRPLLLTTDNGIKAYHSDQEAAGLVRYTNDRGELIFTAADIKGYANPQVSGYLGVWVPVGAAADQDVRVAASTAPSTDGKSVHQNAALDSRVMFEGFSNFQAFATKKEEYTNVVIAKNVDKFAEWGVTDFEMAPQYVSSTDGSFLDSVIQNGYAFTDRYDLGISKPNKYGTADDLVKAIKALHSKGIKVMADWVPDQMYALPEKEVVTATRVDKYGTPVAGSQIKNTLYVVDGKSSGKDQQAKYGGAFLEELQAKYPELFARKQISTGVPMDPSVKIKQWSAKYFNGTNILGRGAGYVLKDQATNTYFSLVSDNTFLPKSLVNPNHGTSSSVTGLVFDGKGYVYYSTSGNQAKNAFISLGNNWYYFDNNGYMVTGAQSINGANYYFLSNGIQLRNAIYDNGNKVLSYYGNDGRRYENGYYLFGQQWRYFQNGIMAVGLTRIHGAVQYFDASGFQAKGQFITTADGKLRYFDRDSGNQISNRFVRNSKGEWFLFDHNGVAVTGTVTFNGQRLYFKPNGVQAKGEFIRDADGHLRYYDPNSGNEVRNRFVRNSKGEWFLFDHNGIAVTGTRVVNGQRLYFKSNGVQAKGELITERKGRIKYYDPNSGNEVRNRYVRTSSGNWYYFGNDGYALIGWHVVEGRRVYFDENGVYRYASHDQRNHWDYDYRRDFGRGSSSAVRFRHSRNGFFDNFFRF

Usually IC50 stands for the concentration needed to halve the response being measured. A high value points to weaker potency in that assay. In general, MIC refers to the smallest concentration in the dilution series that meets the test's criterion for growth inhibition. `O=c1cc(-c2ccc(O)cc2)oc2cc(O)cc(O)c12` [Apigenin]: the “inhibition of GTFs in solution” value in the test on streptococcal GTFs [1] is 90-95%. Also, the IC50 against GTF C (IC50 for surface-adsorbed GTF C, surface-adsorbed) is 458 µM and 451 µM. Also, at GTF C (setting [4]), the inhibition at 125 µM worked out at 30%, the inhibition at 250 µM was found to be 42.1% and the inhibition at 500 µM was 60.5%. Moreover, the IC50 on GTF D is over 1000 µM. In addition, at GTF D (setting [5]), the inhibition at 125 µM worked out at 17%, the inhibition at 250 µM turned out to be 25.5% and the inhibition at 500 µM was 33%. The “inhibition of GTFs on a surface” value in the test on streptococcal GTFs [2] was 60-70%. The “formation of biofilms (in words)” value with biofilms is “inhibits formation of biofilms”. The MIC in test [3] is over 500 µM.
